# Measurements from patent publication US20090099060A1, “Modulation of line-1 reverse transcriptase” (priority 2004, published 2009).
# “Also recorded” adds a separate entry of the source.
# How the values were obtained:
# Saos-2 cells = experiment: Telomere length (PNA probe) and cell cycle (PI) by flow cytometry in AZT-treated Saos-2 cells; type: cell-based, human; conditions: Saos-2, AZT 0.2 μM, 14 days
# Experimental: (§1) Telomere length in AZT treated and untreated cell lines was measured by flow cytometry with a telomere-specific peptide nucleic acid (PNA) probe^22,23. To determine cell cycle distribution, cells were stained with propidium iodide (PI)^22. […] AZT at the chosen concentration had no effect on telomere length or cell cycle distribution in the HeLa cells (not shown).
# (§2) Cell lines: All cell lines used in this study were obtained from American Type Culture Collection (Rockville, Md.). The cells origins included osteosarcoma (Saos-2 and U-2 OS), liver ([…]) and uterine cervix (HeLa). Cells were cultured following ATCC recommendation. For treatment of the cells with AZT, the media was supplemented with 0.2 μM of 3′-azido-2′,3′-dideoxythymidine (Sigma)^28.
# (§3) Telomere length measurement by flow cytometry: Cell were stained with telomere specific FITC conjugated (C3TA2)3 PNA (Applied Biosystems) probe and contrastained with 0.06 μg/ml PI as described^21.
# U-2 OS cells [1] = experiment: Bromodeoxyuridine (BdU) incorporation, rate of DNA synthesis in AZT-treated U-2 OS cells; type: cell-based, human; conditions: AZT for 10, 17 and 40 days
# Experimental: Rate of DNA synthesis was determined by incorporation of 5-bromodeoxyuridine (BdU)^24.
# as §2
# Bromodeoxyuridine incorporation: Cell staining, for BdU incorporation, was performed using cells which were incubated with […] BrdU (Sigma) for 2.5 h, stained with BU-33 anti-BrdU monoclonal antibodies (Sigma) and FITC labeled Alexa 488 goat anti-mouse IgG (H+ L) (Fab′) fragments (Molecular Probes), contrastained with 50 μg/ml PI (Sigma) and analyzed by flow cytometry as described^24.
# U-2 OS cells [2] = experiment: Telomere length (PNA probe) and cell cycle (PI) by flow cytometry in nucleoside-analog-treated U-2 OS cells; type: cell-based, human
# Experimental: as §1
# Telomere length in untreated (FIG. 4a) and GCV treated cells (FIG. 4b) was measured by flow cytometry with a telomere-specific PNA probe as described above.
# To determine cell cycle distribution, cells were stained with propidium iodide (PI).
# as §2, §3
# HeLa cells = experiment: Telomere length and cell cycle by flow cytometry in AZT-treated telomerase-positive HeLa cells; type: cell-based, human; conditions: AZT under the same conditions
# Experimental: as §1, §2, §3
# [3] = tested on: telomerase-positive tumors (WM1175 malignant melanoma or HUT292DM lung cancer); experiment: Telomerase-positive tumors (WM1175 or HUT292DM cells) in immunodeficient mice treated with AZT; type: in vivo; conditions: AZT at the dose used for inhibiting the growth of the ALT cancer cells
# Experimental: After induction of the tumors, mice in the experimental groups may be treated with AZT. Mice may be injected i.p. twice a day with solution of AZT in PBS with a total daily dose of 10 mg/kg. Mice in the control group may be injected with PBS. Alternatively, AZT at the same daily dose may be given in drinking water. […] As a separate set of controls, telomerase-positive tumors in nude mouse may be induced by injecting the immunodeficient mice with WM1175 (malignant melanoma) or HUT292DM (lung cancer) cells instead of the transformed IIICF/c fibroblast cells.
# [4] = tested on: U-2 OS/ras-V12 s.c. tumors; experiment: s.c. tumor growth from U-2 OS/ras-V12 cells in nude mice, AZT in drinking water; type: in vivo; conditions: AZT 2 mg/ml in drinking water from day zero
# Source text: Exemplary in vivo assays of anti-tumor efficacy of AZT using nude mice subcutaneous (s.c.) tumors grown from the U-2 OS human osteosarcoma cell lines (i.e., xenografts bearing mice) as models are described below.
# Human cancerous cells needed for in vivo assays may be prepared, for example, as follows: Telomerase-negative, but ALT positive, U-2 OS human osteosarcoma cell lines are obtained from public sources such as ATCC. Cells are maintained in McCoy 5 media supplemented with 10% fetal calf serum at 37° C. in a humidified atmosphere of 5% CO2. […] Accordingly, activated ras-oncogene expression vector is introduced in near-confluent U-2 OS cells by Lipofectamine 2000% transfection according manufacturer's instructions. One day before transfection U-2 Os cells are seeded at a density 1×10^5 cells in a 6 well-plate. Plasmid pBABE-puro-ras-V12 (available publicly) is linearized by restriction digest with Sca I enzyme. The cells are transfected with the linearized construct and grown in culture. One day after the transfection, cells may be diluted. Then the cells are selected with puromycin ([…]) for 8 days. […]
# In one embodiment, impairment of s.c. tumor growth or time to progression rather than decrease in size of an established tumor is assessed. […] Tumors are measured every 2-3 days. […] Tumor volume is calculated with formula 4/3πr^3, where r is the radius of the tumor.
# [5] = U-2 OS, GCV 0.3 μg/ml, 14 days, listed as ganciclovir
SMILES,apoptosis (Saos-2 cells),cell cycle distribution (PI) (Saos-2 cells),telomere length (telomere-specific PNA fluorescence) (Saos-2 cells),rate of DNA synthesis (BdU incorporation) (U-2 OS cells [1]),DNA content (PI staining) compared to untreated cells (U-2 OS cells [2]; AZT treated cells at later stages of treatment),"treatment time after which changes in cell cycle distribution, DNA synthesis and telomere length could be detected (U-2 OS cells [2]; U-2 OS, AZT)","apoptosis (U-2 OS cells [2]; U-2 OS, AZT 0.2 μM, 14 days)","cell cycle distribution (PI) (U-2 OS cells [2]; U-2 OS, AZT 0.2 μM, 14 days)","telomere length (telomere-specific PNA fluorescence) (U-2 OS cells [2]; U-2 OS, AZT 0.2 μM, 14 days)","telomere length over time of treatment (U-2 OS cells [2]; U-2 OS, AZT for 10, 17 and 40 days)",cell cycle distribution (HeLa cells),telomere length (HeLa cells),inhibition of telomerase-positive tumors [3],tumor development [4],"apoptosis (U-2 OS cells [2]; U-2 OS, GCV 0.3 μg/ml, 14 days)","cell cycle distribution (PI) (U-2 OS cells [2]; U-2 OS, GCV 0.3 μg/ml, 14 days)","telomere length (telomere-specific PNA probe) (U-2 OS cells [2]; U-2 OS, GCV 0.3 μg/ml, 14 days)",cell cycle distribution (PI) (U-2 OS cells [2]; [5]),telomere length (telomere-specific PNA probe) (U-2 OS cells [2]; [5])
"Cc1cn([C@H]2C[C@H](N=[N+]=[N-])[C@@H](CO)O2)c(=O)[nH]c1=O [AZT, 3′-azido-2′,3′-dideoxythymidine]",massive apoptosis,G2 arrest; also recorded: changes in cell cycle,telomere shortening; also recorded: decrease in telomere length,decrease in DNA synthesis,higher DNA content,10 days,massive apoptosis,G2 arrest; also recorded: changes in cell cycle,telomere shortening; also recorded: decrease in telomere length,progressive telomere shortening,no effect,no effect,cannot be inhibited,remain tumor free,–,–,–,–,–
"Nc1nc(O)c2ncn(COC(CO)CO)c2n1 [GCV, ganciclovir]",–,–,–,–,–,–,–,–,–,–,–,–,–,–,massive apoptosis,G2 arrest,telomere shortening,changes in cell cycle,decrease in telomere length
